Measurements as given in patent publication EP0837870B1, “SYNTHETIC MODIFICATION TO SPINOSYN COMPOUNDS” (Dow AgroSciences LLC, priority 1995, dated 1997).
Structures can show the parent of a compound that is named as a salt.

Tests used:
Format in all cases: in vivo
[1] = system: tobacco budworm (Heliothis virescens); experiment: Activity against tobacco budworm (TBW), sprayed diet cups with eggs
Method: (§1) In conducting evaluations of insecticidal activity, each test compound was formulated as a 400 ppm solution, and this solution was then diluted with water to give lesser concentrations. The 400 ppm solution was prepared by combining 19.2 mL of .05% solution of Tween 20 (polyoxyethylene (20) sorbitan monolaurate) in water with a solution of 8 mg of the compound in .8 mL of acetone/EtOH (9/1).
Activity against tobacco budworm (Heliothis virescens) was evaluated as follows. A general purpose lepidoptera artificial diet was diluted to half strength with a 5% non nutritive agar. 8 mL of this diet material was dispensed into each one ounce diet cup. One hour prior to treatment 18 to 20 eggs were dispensed onto the diet surface. The cups were then sprayed with formulated material through a flat-fan nozzle. […] Treated cups were air dried prior to sealing with plastic caps. The cups were held for 6 days at room temperature. Activity was then rated based on the total number of live and dead larvae, and on the size of live larvae.

[2] = system: two spotted spider mite (Tetranychus urticae); experiment: Activity against two spotted spider mite (TSSM), sprayed infested squash plants; details: RATE 400 (ppm), three days after treatment, 4320 min
Method: as §1
Activity against cotton aphid (Aphis gossypii) and two spotted spider mite (Tetranychus urticae) was evaluated as follows. Golden crookneck squash plants were grown to the expanded cotyledon stage (about 6 to 8 days). The plants were infested with cotton aphids and two spotted spider mites 16 to 24 hours before application of the test material by transfer of infested foliage cut from a stock colony. Immediately prior to spray application of the test material the transfer foliage is removed from the squash plants. The test is run using concentrations of 400 ppm and 50 ppm. The plants are sprayed with test solution using an atomizing sprayer at 17 psi. Both surfaces of the leaves are covered until runoff, and then allowed to dry. Activity of each compound was determined three days after treatment. Activity was rated as a percent based on the mites/aphids present in plants sprayed with solvent alone.

[3] = system: Stomoxys calcitrans (stable fly); experiment: Adult stable fly test, serum-saturated dental wick; details: readings at 24 and 48 hours, which one is reported is not stated; for Percentage of ASF killed at 100 ppm: 100 ppm in bovine serum; for Percentage of ASF killed at 10 ppm: 10 ppm in bovine serum
Method: The compound to be evaluated was dissolved in 1 part acetone/1 part ethanol to provide a stock solution of the compound at a concentration of 5,000 ppm; this solution was shaken for 15 minutes on a sonicator. Portions of the stock solution were placed in 15 ml test tubes, and portions of bovine serum were added to provide the desired dilution of the test compound. A dental wick was placed in each test tube and the serum allowed to saturate the wick.
For the adult stable fly test, the saturated wick was placed on a filter paper in a petri dish, and approximately 10 chilled live, hungry stable flies were placed on the center of the dish bottom. The dish was covered and allowed to incubate at 27°C and 60% relative humidity for 48 hours. Mortality readings were made at each of 24 and 48 hours, and adjusted for any mortality in the vehicle control to determine percent efficacy against adult stable fly.

Compound | % MORTALITY ([1]; RATE 400 (ppm), 6 days) [%] | Percentage of ASF killed at 100 ppm [3] [%] | other results
CCOC1C(OC)C(C)OC(OC2CC3CCC4C5CC(=O)OC(CC)CCCC(OC6CCC(N(C)C)C(C)O6)C(C)C(=O)C5=CC4C3C2)C1OC (stereo not shown) [Example A3, 5,6-Dihydro-3'-O-ethyl Spinosyn J] | 100 | – | % MORTALITY [2]: 100%
CCC1CCCC(OC2CCC(N(C)C)C(C)O2)C(C)C(=O)C2=CC3C4CC(OC5OC(C)C(OC)C(OC)C5OC)CC4[C@@]4(C)O[C@H]4C3C2CC(=O)O1 (stereo partly drawn) [Example F8a, (5S,6R)-Epoxy Spinosyn D] | 100 | – | % MORTALITY [2]: 90%
CCC1CCCC(OC2CCC(N(C)C)C(C)O2)C(C)C(=O)C2=CC3C4CC(OC5OC(C)C(OC)C(OC)C5OC)CC4[C@@H](OC(=O)C(Cl)(Cl)Cl)[C@@H](OC(=O)C(Cl)(Cl)Cl)C3C2CC(=O)O1 (stereo partly drawn) [Example F13b, (5S,6R)-5,6-bis(trichloroacetoxy) Spinosyn A] | 60 | – | –
CCC1CCCC(OC2CCC(N(C)C)C(C)O2)C(C)C(=O)C2=CC3C4CC(O)CC4CCC3C2CC(=O)O1 (stereo not shown) [Example F19, 5,6-Dihydro Spinosyn A 9-Psa] | 100 | – | –
CCC1CCCC(OC2CCC(N(C)C)C(C)O2)C(C)C(=O)C2=CC3C4CC(OC5OC(C)C(OC)C(OC)C5OC)CC4[C@@H](Br)[C@H](Br)C3C2CC(=O)O1 (stereo partly drawn) [Example F14, (5R,6R)-5,6-Dibromo Spinosyn A] | 60 | 100 | –
5,6-cis Dihydroxy-5,6-dihydro Spinosyn B [Example F12] | 100 | 100 | –
CC[C@H]1CCC[C@H](O[C@H]2CCC(=O)[C@@H](C)O2)[C@@H](C)C(=O)C2=C[C@H]3[C@@H]4C[C@H](O[C@@H]5O[C@@H](C)[C@H](OC)[C@@H](OC)[C@H]5OC)C[C@H]4[C@@H](Br)[C@H](Br)[C@H]3[C@@H]2CC(=O)O1 [Example F11a, (5R,6R)-5,6-dibromo-4''-keto Spinosyn A] | – | <50 | –
(5S,6R)-Epoxy-Spinosyn Q [Example F25] | 100 | – | –
(5R,6R)-6-Bromo-5-hydroxy Spinosyn J [Example F18] | 100 | 100 | –
CCCCOC1C(OC)C(C)OC(OC2CC3CCC4C5CC(=O)OC(CC)CCCC(OC6CCC(N(C)C)C(C)O6)C(C)C(=O)C5=CC4C3C2)C1OC (stereo not shown) [Example A5, 5,6-Dihydro-3'-O-n-butyl Spinosyn J] | 100 | – | –
CCC1CCCC(OC2CCC(N(C)C)C(C)O2)C(C)C(=O)C2=CC3C4CC(OC5OC(C)C(OC)C(OC)C5OC)CC4C[C@H](O)C3C2CC(=O)O1 (stereo partly drawn) [Example F15a, (5S)-5,6-dihydro-5-hydroxy Spinosyn A] | 100 | – | –
CCC1CCCC(OC2CCC(N(C)C)C(C)O2)C(C)C(=O)C2=CC3C4CC(OC5OC(C)C(OC)C(OC)C5O)CC4CCC3C2CC(=O)O1 (stereo not shown) [Example F22, 5,6-Dihydro Spinosyn H] | 100 | 100 | –
CC[C@H]1CCC[C@H](O)[C@@H](C)C(=O)C2=C[C@H]3[C@@H]4C[C@H](O[C@@H]5O[C@@H](C)[C@H](OC)[C@@H](OC)[C@H]5OC)C[C@H]4C(Br)C(Br)[C@H]3[C@@H]2CC(=O)O1 (stereo partly shown) [Example F5, 5,6-Dibromo Spinosyn A 17-Psa] | – | – | Percentage of ASF killed at 10 ppm [3]: <50%
CC[C@H]1CCC[C@H](O[C@H]2CC[C@H](N(C)C)[C@@H](C)O2)[C@@H](C)C(=O)[C@@H]2C[C@@H]3[C@@H](CC[C@@H]4C[C@@H](O[C@@H]5O[C@@H](C)[C@H](OC)[C@@H](OC)[C@H]5OC)C[C@H]43)[C@@H]2CC(=O)O1 [Example D2, (14R)-5,6,13,14-Tetrahydro Spinosyn A] | – | 100 | Percentage of ASF killed at 10 ppm [3]: <50%
CCOC1C(OC2CC3CCC4C5CC(=O)OC(CC)CCCC(OC6CCC(N(C)C)C(C)O6)C(C)C(=O)C5=CC4C3C2)OC(C)C(OC)C1OC (stereo not shown) [Example A7, 5,6-Dihydro-2'-O-ethyl Spinosyn H] | 100 | 100 | % MORTALITY [2]: 100%
CC[C@H]1CCC[C@H](O[C@H]2CC[C@H](N(C)C)[C@@H](C)O2)[C@@H](C)C(=O)C2=C[C@H]3[C@@H]4C[C@H](O[C@@H]5O[C@@H](C)[C@H](OC)[C@@H](OC)[C@H]5OC)C[C@H]4CC[C@H]3[C@@H]2CC(=O)O1 [Example F23, 5,6-Dihydro Spinosyn A Hemiglutarate salt] | 100 | 100 | % MORTALITY [2]: 100%
CCC1CCCC(OC2CCC(N(C)C)C(C)O2)C(C)C(=O)[C@H]2CC3C4CC(OC5OC(C)C(OC)CC5OC)CC4CCC3C2CC(=O)O1 (stereo partly drawn) [Example D3, (14S)-5,6,13,14-Tetrahydro-3'-deoxy Spinosyn J] | – | 100 | % MORTALITY ([1]; RATE 64 (unit not given), 8640 min): 95%
CCC1CCCC(O[Si](C)(C)C)C(C)C(=O)C2=CC3C4CC(OC5OC(C)C(OC)C(OC)C5OC)CC4C4OC4C3C2CC(=O)O1 [Example E2, (5S,6R)-5,6-Epoxy-17-O-trimethylsilyl Spinosyn A 17-Psa] | – | – | % MORTALITY ([1]; RATE 80 (unit not given), 8640 min): 35%
CC[C@H]1CCC[C@H](O)[C@@H](C)C(=O)C2=C[C@H]3[C@@H]4C[C@H](O[C@@H]5O[C@@H](C)[C@H](OC)[C@@H](OC)[C@H]5OC)C[C@H]4CC[C@H]3[C@@H]2CC(=O)O1 [Example F20, 5,6-Dihydro Spinosyn A 17-Psa] | – | <50 | –
CCCOC1C(OC)C(C)OC(OC2CC3CCC4C5CC(=O)OC(CC)CCCC(OC6CCC(N(C)C)C(C)O6)C(C)C(=O)C5=CC4C3C2)C1OC (stereo not shown) [Example A4, 5,6-Dihydro-3'-O-n-propyl Spinosyn J] | 100 | – | % MORTALITY [2]: 100%
CCC1CCCC(OC2CCC(N(C)C)C(C)O2)C(C)C(=O)C2=CC3C4CC(OC5OC(C)C(OC)C(OC)C5OC(=O)c5ccc(C(F)(F)F)cc5)CC4[C@@]4(C)O[C@H]4C3C2CC(=O)O1 (stereo partly drawn) [Example A2, (5S,6R)-Epoxy-2'-O-(p-trifluoromethyl)benzoyl Spinosyn Q] | 100 | 100 | –
dichloroketene acetal of (5S,6R)-5,6-dihydroxy Spinosyn A [Example F13a] | 100 | – | –
CCC1CCCC(OC2CCC(N(C)C)C(C)O2)C(C)C(=O)C2=CC3C4CC(OC5OC(C)C(OC)C(OC)C5OC)CC4[C@@H](SC)[C@H](OC(C)=O)C3C2CC(=O)O1 (stereo partly drawn) [Example F16, (5R,6R)-5-Acetoxy-6-thiomethoxy Spinosyn A] | 100 | 100 | –
5,6-Dihydro Derivative of Compound 9-O-(2,3,4-Tri-O-ethyl-α-L-rhamnosyl) Spinosyn A 9-Psa [Example A1] | 100 | – | % MORTALITY [2]: 100%
CCC1CCCC(OC2CCC(N(C)C)C(C)O2)C(C)C(=O)C2=CC3C4CC(OC5OC(C)C(OC)C(OC)C5OC)CC4[C@@H](S(C)(=O)=O)[C@H](OC(C)=O)C3C2CC(=O)O1 (stereo partly drawn) [Example F17, (5R,6R)-5-Acetoxy-6-methylsulfonyl Spinosyn A] | 100 | 100 | –
(5R,6R)-5,6-dibromo Spinosyn B [Example F11b] | 100 | 100 | –
5,6-Dihydro Spinosyn J [Example F21] | 100 | 100 | –
